In patent US20050096323A1, “Diketopiperazine derivatives to inhibit thrombin” (NovoScience Pharma Inc., priority 1999, published 2005):

Key:
[1] = molecular target: T1, tissue plasminogen activator (tPA) (Homo sapiens, UniProt P00750); assay: tPA inhibition constant (Ki), fluorogenic substrate assay; type: biochemical; settings: substrate Boc-L-(p-F) FPR-ANSNH-C2H5
T1 construct: purchased Sigma
Experimental: (§1) The activity and selectivity of the present invention can be identified by determination of the inhibition constant (Ki) for serine proteases such thrombin and trypsin and fibrinolytic enzymes such as urokinase, plasmin and tissue plasminogen activator (tPA). All of enzymes are purchased from Sigma. The general assay conditions are as follows. The fluorogenic substrates are dissolved in DMSO and diluted using assay buffer containing 50 mM Tris.HCl (pH 7.8 at 25° C.), 0.1 M NaCl and 0.1% polyethylene glycol 8000 (PEG 8000). […] The assays were conducted using Hitachi F2500 spectrophotometer under ambient temperature and at the excitation and emission wavelengths of 383 nm and 455 nm, respectively. The typical progressive data of the enzymatic assays are shown in FIGS. 1-3, and the determination of inhibition constant (Ki) is shown in FIG. 4.

[2] = molecular target: T2, plasmin (Homo sapiens, UniProt P00747); assay: Plasmin inhibition constant (Ki), fluorogenic substrate assay; type: biochemical; settings: substrate D-Ala-Leu-Lys-AMC
T2 construct: purchased Sigma
T2 sequence (P00747 581-810 limits assumed, species assumed): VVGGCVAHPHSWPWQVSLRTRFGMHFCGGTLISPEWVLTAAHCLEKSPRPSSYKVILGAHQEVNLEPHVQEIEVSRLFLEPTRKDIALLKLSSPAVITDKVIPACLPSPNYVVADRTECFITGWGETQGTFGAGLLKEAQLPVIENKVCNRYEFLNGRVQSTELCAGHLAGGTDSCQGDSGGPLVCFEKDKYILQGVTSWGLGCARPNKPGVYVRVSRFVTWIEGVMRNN
T2 sequence (P00747 97-580 partner limits assumed, species assumed): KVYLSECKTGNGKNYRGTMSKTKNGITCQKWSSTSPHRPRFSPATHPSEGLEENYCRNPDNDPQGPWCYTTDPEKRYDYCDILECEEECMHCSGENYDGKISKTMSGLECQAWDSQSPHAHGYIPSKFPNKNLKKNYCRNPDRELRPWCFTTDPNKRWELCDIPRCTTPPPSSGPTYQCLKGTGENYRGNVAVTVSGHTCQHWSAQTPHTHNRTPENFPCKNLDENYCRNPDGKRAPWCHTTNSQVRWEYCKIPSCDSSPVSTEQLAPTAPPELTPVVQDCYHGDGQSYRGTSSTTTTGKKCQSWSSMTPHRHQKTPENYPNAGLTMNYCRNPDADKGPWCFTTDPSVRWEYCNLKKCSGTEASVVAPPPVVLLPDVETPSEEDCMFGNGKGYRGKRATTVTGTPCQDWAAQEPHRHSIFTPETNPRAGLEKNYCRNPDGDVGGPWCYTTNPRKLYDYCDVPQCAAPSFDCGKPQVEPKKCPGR
Experimental: as §1

[3] = system: SD rats; assay: Acute myocardial infarction by coronary artery ligation in rats; type: in vivo, rat; settings: for S point in electrocardiogram / T wave in electrocardiogram: reference drug 0.125 mg/kg i.v.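 For CK (u/ml): blood collected at end of 6 h (i.v.) or 8 h (intraduodenal) ECG observation.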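 For LDH (u/ml): blood collected at end of 6 h (i.v.) or 8 h (intraduodenal) ECG observation.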
Experimental: The drugs were administered 8 to 10 min after the coronary artery was ligated.

[4] = molecular target: T3, urokinase (Homo sapiens, UniProt P00749); assay: Urokinase inhibition constant (Ki), fluorogenic substrate assay; type: biochemical; settings: substrate N-Cbz-Gly-Gly-Arg-AMC
T3 construct: purchased Sigma
Experimental: as §1

[5] = system: SD rats; assay: Weight of deep vein thrombosis (inferior vena cava thrombi) in rats; type: in vivo, rat; settings: 1.25 mg/kg i.v., 4 hours
Experimental: The drug was administered immediately after operation and, 4 hours later, the thrombi were collected and weighted.

[6] = system: ICR mice; assay: Clotting time (CT) of mice whole blood after administration; type: in vivo
Experimental: Blood samples were collected using the capillary method 0.5 h and 1.5 h after i.v. injections and 1 h and 3 h after i.g. and clotting time of whole blood was measured.

[7] = system: SD rats; assay: RT, TT, PT, APTT and FIB in rat plasma after administration; type: in vivo; design: FIB (Fibrillation) / RT (Clot Retraction Time) / TT (Thrombin Time): unit not given here; settings: 2.5 mg/kg i.v.
Experimental: Blood was taken at 0.5 h and 1.5 h after i.v. injection and at 1 h and 3 h after i.g. and plasma RT,TT,PT,APTT and FIB were determined.

[8] = molecular target: T4, thrombin (Homo sapiens, UniProt P00734); assay: Thrombin inhibition constant (Ki), fluorogenic substrate assay; type: biochemical; settings: Table II, method of example 9
T4 construct: purchased Sigma

[9] = 0 min after ligation (before drug)
[10] = serum, reference drug, 0.125 mg/kg i.v.

T1 sequence (P00750 36-562, species assumed): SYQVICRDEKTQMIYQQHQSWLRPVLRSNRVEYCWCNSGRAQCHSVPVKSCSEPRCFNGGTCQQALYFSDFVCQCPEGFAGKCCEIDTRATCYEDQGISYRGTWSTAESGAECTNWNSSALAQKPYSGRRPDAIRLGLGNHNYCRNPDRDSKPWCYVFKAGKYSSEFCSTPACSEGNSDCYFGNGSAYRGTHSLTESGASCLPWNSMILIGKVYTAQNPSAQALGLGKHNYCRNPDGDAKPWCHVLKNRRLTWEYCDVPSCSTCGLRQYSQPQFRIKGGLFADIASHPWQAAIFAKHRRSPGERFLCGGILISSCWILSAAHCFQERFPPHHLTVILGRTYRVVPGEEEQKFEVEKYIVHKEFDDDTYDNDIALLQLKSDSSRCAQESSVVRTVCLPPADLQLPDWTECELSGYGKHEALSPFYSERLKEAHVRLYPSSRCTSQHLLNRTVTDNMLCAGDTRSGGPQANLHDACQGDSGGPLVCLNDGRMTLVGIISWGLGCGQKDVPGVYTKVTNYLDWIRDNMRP

**Q.** Which results are given for CC1CNc2c(cccc2S(=O)(=O)N[C@@H](CCCNC(=N)N)C(=O)N2CC[C@@H](C)C[C@@H]2C(=O)O)C1 (stereo partly shown) [Argatroban, reference compound]?
**A.** Ki [1]: 777 µM; Ki [2]: 372 µM; S point in electrocardiogram [3, 9]: 0.35 ± 0.16; T wave in electrocardiogram [3, 9]: 0.23 ± 0.16; S point in electrocardiogram ([3]; 10 min after ligation): 0.36 ± 0.20; T wave in electrocardiogram ([3]; 10 min after ligation): 0.21 ± 0.18; S point in electrocardiogram ([3]; 30 min after ligation): 0.26 ± 0.15; T wave in electrocardiogram ([3]; 30 min after ligation): 0.16 ± 0.18; S point in electrocardiogram ([3]; 6 h after ligation): 0.19 ± 0.10; T wave in electrocardiogram ([3]; 6 h after ligation): 0.11 ± 0.10; Infarction Area (%) ([3]; reference drug, 0.125 mg/kg i.v.): 23.55 ± 7.95 %; CK (u/ml) [3, 10]: 55.92 ± 11.46 u/ml; LDH (u/ml) [3, 10]: 6259.5 ± 308.6 u/ml; Ki [4]: 999 µM; Thrombi (mg) Dry weight [5]: 6.26 ± 3.72 mg; Thrombi (mg) Wet weight [5]: 18.04 ± 8.99 mg; CT (clotting time of whole blood) ([6]; 2.5 mg/kg i.v. group, before administration): 133.28 ± 26.21; CT (clotting time of whole blood) ([6]; 2.5 mg/kg i.v., 0.5 h): 170.33 ± 28.34; CT (clotting time of whole blood) ([6]; 2.5 mg/kg i.v., 1.5 h): 156.11 ± 32.08; APTT (Activated Partial Prothromboplastin Time) ([7]; 0.5 h): 37.9 ± 10.2; PT (Prothrombin Time) ([7]; 0.5 h): 37.9 ± 8.6; RT (Clot Retraction Time) ([7]; 0.5 h): 91.2 ± 15.0; TT (Thrombin Time) ([7]; 0.5 h): 72.9 ± 20.1; APTT (Activated Partial Prothromboplastin Time) ([7]; 1.5 h): 30.1 ± 6.5; FIB (Fibrillation) ([7]; 1.5 h): 4.0 ± 0.9; PT (Prothrombin Time) ([7]; 1.5 h): 29.5 ± 8.5; RT (Clot Retraction Time) ([7]; 1.5 h): 77.4 ± 10.6; TT (Thrombin Time) ([7]; 1.5 h): 50.4 ± 12.3

**Q.** For CCC1CCN2C(=O)C(CCCNC(=N)N)N(S(=O)(=O)c3cccc4c3NCC(C)C4)C(=O)C2C1 (stereo not shown) [compound 2], which Ki [8] is on record?
**A.** 0.061 µM

**Q.** Which Ki [8] does the source give for CC1CNc2c(cccc2S(=O)(=O)N2C(=O)C3CC(c4ccccc4)CCN3C(=O)C2CCCNC(=N)N)C1 (stereo not shown) [compound 3] here?
**A.** 0.91 µM

**Q.** Which Ki [8] does the source give for CC1CNc2c(cccc2S(=O)(=O)N2C(=O)C3CC(C(C)(C)C)CCN3C(=O)C2CCCNC(=N)N)C1 (stereo not shown) [compound 4] here?
**A.** 1.58 µM
